Measured values reported in paper PMC7523345 (Investigational new drugs, 2018).

Legend:
[1] = tested on: human T-ALL xenograft models; details: single agent; nonclinical; cited from earlier work
[2] = in vivo; cited from earlier work
[3] = tested on: advanced solid tumours; test: Tumour response by RECIST 1.1; type: in vivo, human
[4] = tested on: Hes1; test: Hes1 expression in peripheral blood; type: in vivo, human; details: after 2 weeks of dosing at 1.2 mg QD and 1.5 mg QD
[5] = clinical; set-up: species or system human; details: in vivo
[6] = tested on: solid tumour xenografts; details: including 3 breast, 1 NSCLC, 1 pancreatic carcinoma; nonclinical; cited from earlier work
[7] = tested on: Deltex1; test: Deltex1 expression in peripheral blood; type: in vivo, human; details: 4 mg BIW
[8] = molecular target: Notch receptors (Notch1 to 4); details: all 4 mammalian Notch receptors (Notch1 to 4); nonclinical; cited from earlier work

Cc1cccc2c1NC(=O)[C@@H](NC(=O)[C@H](CCC(F)(F)F)[C@H](CCC(F)(F)F)C(N)=O)N=C2c1cccc(F)c1 [BMS-986115]
Efficacy in human T-ALL xenograft models [1]: effective as a single agent | Main pharmacological toxicities in animal studies [2]: dose-dependent gastrointestinal (GI) toxicity, lymphoid depletion, and interruption of ovarian follicle maturation | Subjects with progressive disease as best tumour response ([3]; 36 treated subjects): 58% | Subjects with stable disease (SD) as best tumour response ([3]; 36 treated subjects): 31% | Subjects with SD for more than 6 months ([3]; 36 treated subjects, both arms): 5 subjects | Patients with stable disease for more than 6 months ([3]; Arm A): Three | Patients with stable disease for more than 6 months ([3]; Arm B): 2 patients | Patients with prolonged SD of >6 months with disease shrinkage ([3]; dose levels that are pharmacodynamically active): 3 patients | maximum tumor shrinkage ([3]; patient with clear cell renal cell carcinoma, 1.2 mg QD, after ~5.5 months of treatment): 23.9% | maximum disease shrinkage ([3]; patient with fibromatosis, 1.5 mg QD, after ~9 months of treatment): 16.5% | maximum tumor shrinkage ([3]; patient with retroperitoneal liposarcoma, 2 mg QD, after ~7.5 months of treatment): 13.8% | Peak inhibition of geometric mean relative expression of Hes1 [4]: > 80% | half-life ([5]; human): 17.2 to 28 h | median accumulation ratio (AUCtau ratio of Day 15/Day 1) ([5]; human, 0.3 mg): 2.64 | median accumulation ratio (AUCtau ratio of Day 15/Day 1) ([5]; human, 0.6 mg): 3.9 | median accumulation ratio (AUCtau ratio of Day 15/Day 1) ([5]; human, 1.2 mg): 3.66 | median accumulation ratio (AUCtau ratio of Day 15/Day 1) ([5]; human, 1.5 mg): 2.33 | Accumulation ratio (AUCtau ratio of Day 16/Day 1) ([5]; human, 2 mg): 2.47 | median accumulation ratio (AUCtau ratio of Day 15/Day 1) ([5]; human, 2 mg): 2.19 | Accumulation ratio (AUCtau ratio of Day 16/Day 1) ([5]; human, 4 mg): 3.01 | Accumulation ratio (AUCtau ratio of Day 16/Day 1) ([5]; human, 8 mg): 2.77 | Exposure, dose relation [5]: dose related increase | Solid tumour xenografts with anti-tumour activity [6]: 5 out of 7 | Inhibition of geometric mean relative expression of Deltex1 [7]: > 50% | median inhibitory concentrations (IC50s) [8]: low nanomolar
